Assay results as given in the kinase profiling compilation of Christmann-Franck et al. (2016).
Where “and” joins values, the source holds several entries; their conditions need not be identical. Equal values may be shown once. Blank lines part the entries; values can stand above or below the compound they belong to.

Key:
Experiment in all cases: Caliper, Mobility shift assay off-chip
[1] = target: ALK (human) (UniProt Q9UM73)
[2] = target: BRSK2 (human) (UniProt Q8IWQ3)
[3] = target: CAMK2B (human) (UniProt Q13554)
[4] = target: CAMK4 (human) (UniProt Q16566)
[5] = target: CDC42BPB (human) (UniProt Q9Y5S2)
[6] = target: CDK2 (human) (UniProt P24941)
[7] = target: CDK3 (human) (UniProt Q00526)
[8] = target: CDK4 (human) (UniProt P11802)
[9] = target: CDK5 (human) (UniProt Q00535)
[10] = target: CSK (human) (UniProt P41240)
[11] = target: CSNK1G1 (human) (UniProt Q9HCP0)
[12] = target: DAPK1 (human) (UniProt P53355)
[13] = target: ERBB4 (human) (UniProt Q15303)
[14] = target: HIPK1 (human) (UniProt Q86Z02)
[15] = target: INSRR (human) (UniProt P14616)
[16] = target: MAPK14 (human) (UniProt Q16539)
[17] = target: MAPKAPK2 (human) (UniProt P49137)
[18] = target: MAPKAPK3 (human) (UniProt Q16644)
[19] = target: NEK1 (human) (UniProt Q96PY6)
[20] = target: NEK6 (human) (UniProt Q9HC98)
[21] = target: NEK9 (human) (UniProt Q8TD19)
[22] = target: NTRK1 (human) (UniProt P04629)
[23] = target: PAK2 (human) (UniProt Q13177)
[24] = target: PAK6 (human) (UniProt Q9NQU5)
[25] = target: PDPK1 (human) (UniProt O15530)
[26] = target: ROCK2 (human) (UniProt O75116)
[27] = target: RPS6KA1 KD1 KD2 (human) (UniProt Q15418)
[28] = target: RPS6KA3 KD1 KD2 (human) (UniProt P51812)
[29] = target: SGK3 (human) (UniProt Q96BR1)
[30] = target: SIK1 (human) (UniProt P57059)
[31] = target: TAB1 (human) (UniProt Q15750)
[32] = target: TAOK2 (human) (UniProt Q9UL54)
[33] = target: TSSK2 (human) (UniProt Q96PF2)
[34] = target: TYK2 JH1 JH2 (human) (UniProt P29597)

Chain of TAOK2 (human) (Q9UL54 whole entry, looked up): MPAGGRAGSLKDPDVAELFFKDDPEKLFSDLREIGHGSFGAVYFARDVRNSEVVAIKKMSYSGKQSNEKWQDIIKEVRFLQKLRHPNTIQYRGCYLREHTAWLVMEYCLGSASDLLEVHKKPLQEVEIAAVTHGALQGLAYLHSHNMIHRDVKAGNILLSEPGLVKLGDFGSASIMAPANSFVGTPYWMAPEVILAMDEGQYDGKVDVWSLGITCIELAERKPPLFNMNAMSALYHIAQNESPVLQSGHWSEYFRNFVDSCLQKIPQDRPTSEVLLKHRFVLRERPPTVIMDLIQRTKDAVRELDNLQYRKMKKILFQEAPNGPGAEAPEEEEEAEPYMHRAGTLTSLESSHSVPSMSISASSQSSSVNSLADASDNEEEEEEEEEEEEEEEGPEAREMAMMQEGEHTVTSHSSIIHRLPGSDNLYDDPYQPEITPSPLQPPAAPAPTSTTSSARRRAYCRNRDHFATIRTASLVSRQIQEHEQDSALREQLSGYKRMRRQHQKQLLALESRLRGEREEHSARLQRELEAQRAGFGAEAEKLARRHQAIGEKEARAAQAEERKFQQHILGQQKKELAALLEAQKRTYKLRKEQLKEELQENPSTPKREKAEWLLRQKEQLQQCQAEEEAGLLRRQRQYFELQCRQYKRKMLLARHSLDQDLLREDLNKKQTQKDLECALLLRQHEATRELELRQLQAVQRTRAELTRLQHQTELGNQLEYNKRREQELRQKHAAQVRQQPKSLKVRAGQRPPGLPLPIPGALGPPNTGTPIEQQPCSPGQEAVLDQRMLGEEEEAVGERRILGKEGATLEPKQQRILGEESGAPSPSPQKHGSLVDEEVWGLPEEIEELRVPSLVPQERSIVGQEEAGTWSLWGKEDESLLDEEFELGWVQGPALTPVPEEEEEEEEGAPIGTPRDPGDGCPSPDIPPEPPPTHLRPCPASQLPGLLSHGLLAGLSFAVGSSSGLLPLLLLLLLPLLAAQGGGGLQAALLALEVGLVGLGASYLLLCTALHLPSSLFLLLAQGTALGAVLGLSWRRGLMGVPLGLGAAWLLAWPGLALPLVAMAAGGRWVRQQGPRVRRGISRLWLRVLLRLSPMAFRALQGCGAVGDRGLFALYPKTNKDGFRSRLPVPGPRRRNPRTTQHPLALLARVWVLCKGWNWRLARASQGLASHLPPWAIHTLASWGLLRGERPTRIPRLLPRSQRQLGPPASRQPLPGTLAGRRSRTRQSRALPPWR
Chain of MAPKAPK3 (human) (Q16644 whole entry, looked up): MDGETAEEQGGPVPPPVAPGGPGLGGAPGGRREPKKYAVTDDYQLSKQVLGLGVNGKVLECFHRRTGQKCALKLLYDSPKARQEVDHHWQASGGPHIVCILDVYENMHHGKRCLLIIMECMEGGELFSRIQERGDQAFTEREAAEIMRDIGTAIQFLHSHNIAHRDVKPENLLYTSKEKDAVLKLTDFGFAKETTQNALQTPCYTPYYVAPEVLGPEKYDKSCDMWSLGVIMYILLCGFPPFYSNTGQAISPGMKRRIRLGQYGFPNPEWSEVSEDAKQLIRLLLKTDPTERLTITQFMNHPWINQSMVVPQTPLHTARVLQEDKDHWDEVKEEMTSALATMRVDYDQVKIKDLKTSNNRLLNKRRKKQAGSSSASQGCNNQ
Chain of RPS6KA3 KD1 KD2 (human) (P51812 whole entry, looked up): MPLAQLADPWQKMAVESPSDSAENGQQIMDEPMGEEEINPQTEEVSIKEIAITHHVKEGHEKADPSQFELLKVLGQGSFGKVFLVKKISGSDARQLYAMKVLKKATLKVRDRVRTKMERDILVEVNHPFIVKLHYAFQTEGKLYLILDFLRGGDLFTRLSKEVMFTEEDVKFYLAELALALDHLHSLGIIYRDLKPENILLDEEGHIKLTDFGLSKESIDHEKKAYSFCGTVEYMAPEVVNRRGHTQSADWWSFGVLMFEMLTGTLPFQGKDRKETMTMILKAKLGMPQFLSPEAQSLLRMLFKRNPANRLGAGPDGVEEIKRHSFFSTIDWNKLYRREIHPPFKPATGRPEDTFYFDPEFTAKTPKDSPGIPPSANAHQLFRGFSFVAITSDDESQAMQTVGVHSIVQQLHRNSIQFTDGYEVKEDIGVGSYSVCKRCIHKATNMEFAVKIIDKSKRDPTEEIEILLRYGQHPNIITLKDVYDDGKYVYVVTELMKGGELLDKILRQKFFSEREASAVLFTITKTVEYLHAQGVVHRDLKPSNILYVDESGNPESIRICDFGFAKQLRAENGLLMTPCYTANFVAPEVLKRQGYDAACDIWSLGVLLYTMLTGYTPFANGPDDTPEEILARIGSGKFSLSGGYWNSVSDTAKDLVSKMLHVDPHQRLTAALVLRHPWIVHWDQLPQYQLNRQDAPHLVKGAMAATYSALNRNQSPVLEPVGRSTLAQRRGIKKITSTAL
Chain of NEK1 (human) (Q96PY6 whole entry, looked up): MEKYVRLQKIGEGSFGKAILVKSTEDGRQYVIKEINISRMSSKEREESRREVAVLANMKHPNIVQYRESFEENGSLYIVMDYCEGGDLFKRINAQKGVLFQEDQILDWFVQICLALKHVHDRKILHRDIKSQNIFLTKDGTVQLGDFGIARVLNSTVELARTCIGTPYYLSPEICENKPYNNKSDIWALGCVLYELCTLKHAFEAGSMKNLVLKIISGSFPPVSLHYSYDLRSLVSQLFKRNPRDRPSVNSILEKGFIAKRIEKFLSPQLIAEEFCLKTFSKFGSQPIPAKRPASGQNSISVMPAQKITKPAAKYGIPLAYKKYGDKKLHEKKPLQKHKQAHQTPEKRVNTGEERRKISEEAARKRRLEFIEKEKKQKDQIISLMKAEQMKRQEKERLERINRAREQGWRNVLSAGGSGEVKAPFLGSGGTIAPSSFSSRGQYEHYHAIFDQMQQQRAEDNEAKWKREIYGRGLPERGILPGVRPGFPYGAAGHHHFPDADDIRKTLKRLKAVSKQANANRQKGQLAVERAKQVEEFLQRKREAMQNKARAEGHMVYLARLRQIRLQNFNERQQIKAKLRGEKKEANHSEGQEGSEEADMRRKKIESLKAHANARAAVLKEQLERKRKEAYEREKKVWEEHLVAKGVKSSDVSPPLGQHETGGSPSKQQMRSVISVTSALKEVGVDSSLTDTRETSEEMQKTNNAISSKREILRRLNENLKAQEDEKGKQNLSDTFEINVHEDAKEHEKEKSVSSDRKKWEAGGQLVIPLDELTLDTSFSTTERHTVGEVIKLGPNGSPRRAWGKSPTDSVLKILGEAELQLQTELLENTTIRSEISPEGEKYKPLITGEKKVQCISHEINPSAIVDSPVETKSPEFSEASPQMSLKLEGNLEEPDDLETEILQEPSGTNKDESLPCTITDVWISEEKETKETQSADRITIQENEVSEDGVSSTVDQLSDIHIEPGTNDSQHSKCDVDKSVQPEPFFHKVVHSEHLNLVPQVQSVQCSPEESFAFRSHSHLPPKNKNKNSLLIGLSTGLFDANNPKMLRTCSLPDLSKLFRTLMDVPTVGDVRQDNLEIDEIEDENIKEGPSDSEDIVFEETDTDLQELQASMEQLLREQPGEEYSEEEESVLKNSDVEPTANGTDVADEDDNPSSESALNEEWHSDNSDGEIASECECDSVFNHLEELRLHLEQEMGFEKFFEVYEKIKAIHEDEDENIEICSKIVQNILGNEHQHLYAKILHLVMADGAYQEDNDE
Chain of CSNK1G1 (human) (Q9HCP0 whole entry, looked up): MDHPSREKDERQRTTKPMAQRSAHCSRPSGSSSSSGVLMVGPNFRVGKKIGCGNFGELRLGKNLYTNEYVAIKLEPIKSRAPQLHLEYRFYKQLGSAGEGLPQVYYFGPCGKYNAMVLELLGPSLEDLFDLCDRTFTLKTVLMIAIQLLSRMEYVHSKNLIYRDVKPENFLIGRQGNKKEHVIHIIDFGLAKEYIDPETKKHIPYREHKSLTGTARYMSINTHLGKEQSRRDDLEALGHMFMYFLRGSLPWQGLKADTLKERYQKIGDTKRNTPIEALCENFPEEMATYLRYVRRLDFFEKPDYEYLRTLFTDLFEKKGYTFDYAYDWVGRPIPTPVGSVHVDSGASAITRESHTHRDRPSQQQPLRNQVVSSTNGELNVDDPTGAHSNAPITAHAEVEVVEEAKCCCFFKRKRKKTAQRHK
Chain of CDK4 (human) (P11802 whole entry, looked up): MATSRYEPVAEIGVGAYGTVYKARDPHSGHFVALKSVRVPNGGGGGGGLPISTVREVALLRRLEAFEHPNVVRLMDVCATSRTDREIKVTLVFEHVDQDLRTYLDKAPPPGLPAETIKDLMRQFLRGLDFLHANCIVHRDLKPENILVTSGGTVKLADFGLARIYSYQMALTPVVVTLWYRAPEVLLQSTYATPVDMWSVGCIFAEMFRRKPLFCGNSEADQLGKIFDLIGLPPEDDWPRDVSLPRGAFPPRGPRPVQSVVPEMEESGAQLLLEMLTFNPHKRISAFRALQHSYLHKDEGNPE
Chain of MAPK14 (human) (Q16539 whole entry, looked up): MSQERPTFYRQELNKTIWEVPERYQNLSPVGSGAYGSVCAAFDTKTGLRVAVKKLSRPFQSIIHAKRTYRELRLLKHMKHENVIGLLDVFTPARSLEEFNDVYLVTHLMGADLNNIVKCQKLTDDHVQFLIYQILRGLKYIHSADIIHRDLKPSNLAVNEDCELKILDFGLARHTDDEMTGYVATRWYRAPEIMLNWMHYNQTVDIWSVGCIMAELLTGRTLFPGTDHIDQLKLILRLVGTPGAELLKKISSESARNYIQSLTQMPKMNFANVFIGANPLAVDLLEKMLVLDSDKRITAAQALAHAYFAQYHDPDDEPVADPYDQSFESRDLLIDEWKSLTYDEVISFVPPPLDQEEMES
Chain of NEK6 (human) (Q9HC98 whole entry, looked up): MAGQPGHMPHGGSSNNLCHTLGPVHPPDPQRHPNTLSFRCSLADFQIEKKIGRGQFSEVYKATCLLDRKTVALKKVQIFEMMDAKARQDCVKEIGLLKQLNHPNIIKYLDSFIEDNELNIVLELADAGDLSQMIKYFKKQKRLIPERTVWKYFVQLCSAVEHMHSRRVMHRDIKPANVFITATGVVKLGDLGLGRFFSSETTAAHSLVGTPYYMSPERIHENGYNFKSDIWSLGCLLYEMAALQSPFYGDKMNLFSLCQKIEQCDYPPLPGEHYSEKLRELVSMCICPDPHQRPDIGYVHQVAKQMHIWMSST

inhibition ([1]; compound 0.02 µM): -3.3%
inhibition ([1]; compound 0.2 µM): 5.8%
inhibition ([2]; compound 0.02 µM): -1.1%
inhibition ([2]; compound 0.2 µM): -1.3%
inhibition ([3]; compound 0.02 µM): -6.4%
inhibition ([3]; compound 0.2 µM): -7%
inhibition ([4]; compound 0.02 µM): -8.3%
inhibition ([4]; compound 0.2 µM): 1.9%
inhibition ([5]; compound 0.02 µM): -3.1%
inhibition ([5]; compound 0.2 µM): 0.8%
inhibition ([6]; compound 0.02 µM): -3.5% and -3.6%
inhibition ([6]; compound 0.2 µM): -1.3% and -2.4%
inhibition ([7]; compound 0.02 µM): -4.1%
inhibition ([7]; compound 0.2 µM): -2.4%
inhibition ([8]; compound 0.02 µM): -2.3%
inhibition ([8]; compound 0.2 µM): -2.5%
inhibition ([9]; compound 0.02 µM): -3.5%
inhibition ([9]; compound 0.2 µM): -3.6%
inhibition ([10]; compound 0.02 µM): -9.3%
inhibition ([10]; compound 0.2 µM): 2.6%
inhibition ([11]; compound 0.02 µM): -3.7%
inhibition ([11]; compound 0.2 µM): -3%
inhibition ([12]; compound 0.02 µM): 0.7%
inhibition ([12]; compound 0.2 µM): 1.1%
inhibition ([13]; compound 0.02 µM): -0.4%
inhibition ([13]; compound 0.2 µM): 10.4%
inhibition ([14]; compound 0.02 µM): -1.4%
inhibition ([14]; compound 0.2 µM): 3.9%
inhibition ([15]; compound 0.02 µM): -6.9%
inhibition ([15]; compound 0.2 µM): -3%
inhibition ([16]; compound 0.2 µM): 63.8%
inhibition ([17]; compound 0.02 µM): -7.2%
inhibition ([17]; compound 0.2 µM): -2%
inhibition ([18]; compound 0.02 µM): -6.2%
inhibition ([18]; compound 0.2 µM): 3.5%
inhibition ([19]; compound 0.02 µM): -5.2%
inhibition ([19]; compound 0.2 µM): -6.3%
inhibition ([20]; compound 0.02 µM): -5%
inhibition ([20]; compound 0.2 µM): -6.1%
inhibition ([22]; compound 0.02 µM): 7.9%
inhibition ([22]; compound 0.2 µM): 37.2%
inhibition ([23]; compound 0.02 µM): -1.7%
inhibition ([23]; compound 0.2 µM): 0.7%
inhibition ([24]; compound 0.02 µM): -6.6%
inhibition ([24]; compound 0.2 µM): -32.1%
inhibition ([25]; compound 0.02 µM): -1%
inhibition ([25]; compound 0.2 µM): 0.9%
inhibition ([26]; compound 0.02 µM): -2%
inhibition ([26]; compound 0.2 µM): 2.8%
inhibition ([27]; compound 0.02 µM): -3.6%
inhibition ([27]; compound 0.2 µM): 3.1%
inhibition ([28]; compound 0.02 µM): -5%
inhibition ([28]; compound 0.2 µM): -5.9%
inhibition ([29]; compound 0.02 µM): 0.8%
inhibition ([29]; compound 0.2 µM): 10.7%
inhibition ([30]; compound 0.02 µM): -3.4%
inhibition ([30]; compound 0.2 µM): 7.3%
inhibition ([31]; compound 0.02 µM): 4.8%
inhibition ([31]; compound 0.2 µM): 14.3%
inhibition ([32]; compound 0.02 µM): 7.3%
inhibition ([32]; compound 0.2 µM): 48%
inhibition ([33]; compound 0.02 µM): -3.9%
inhibition ([33]; compound 0.2 µM): -2.4%
inhibition ([34]; compound 0.02 µM): -2.4%
SMILES: CNC(=O)c1cc(Oc2ccc(NC(=O)Nc3ccc(Cl)c(C(F)(F)F)c3)cc2)ccn1
inhibition ([21]; compound 0.02 µM): -3.7%
inhibition ([21]; compound 0.2 µM): -5.9%

inhibition ([1]; compound 0.001 µM): 2.5%
inhibition ([1]; compound 0.02 µM): 1.4%
inhibition ([2]; compound 0.001 µM): -3.5%
inhibition ([2]; compound 0.02 µM): 12.9%
inhibition ([4]; compound 0.001 µM): -4%
inhibition ([4]; compound 0.02 µM): -4.7%
inhibition ([5]; compound 0.001 µM): -8.6%
inhibition ([5]; compound 0.02 µM): 2.9%
inhibition ([7]; compound 0.001 µM): -4.2%
inhibition ([7]; compound 0.02 µM): -4.8%
inhibition ([8]; compound 0.001 µM): -2.2%
inhibition ([8]; compound 0.02 µM): 2.9%
inhibition ([10]; compound 0.001 µM): -4.6%
inhibition ([10]; compound 0.02 µM): -6.7%
inhibition ([11]; compound 0.001 µM): -4.5%
inhibition ([11]; compound 0.02 µM): -3.6%
inhibition ([12]; compound 0.001 µM): -5%
inhibition ([12]; compound 0.02 µM): 4.8%
inhibition ([13]; compound 0.001 µM): 6.3%
inhibition ([13]; compound 0.02 µM): 3.7%
inhibition ([14]; compound 0.001 µM): -4.9%
inhibition ([14]; compound 0.02 µM): -0.2%
inhibition ([15]; compound 0.001 µM): -5.2%
inhibition ([15]; compound 0.02 µM): -8.3%
inhibition ([16]; compound 0.001 µM): -8%
inhibition ([16]; compound 0.02 µM): -6.9%
inhibition ([17]; compound 0.001 µM): 2.3%
inhibition ([17]; compound 0.02 µM): -0.8%
inhibition ([18]; compound 0.001 µM): -0.7%
inhibition ([18]; compound 0.02 µM): -5.2%
inhibition ([19]; compound 0.001 µM): -7.5%
inhibition ([19]; compound 0.02 µM): -8.1%
inhibition ([20]; compound 0.001 µM): -7.6%
inhibition ([20]; compound 0.02 µM): -5.8%
inhibition ([22]; compound 0.001 µM): 2.9%
inhibition ([22]; compound 0.02 µM): 21.6%
inhibition ([23]; compound 0.001 µM): -3.6%
inhibition ([23]; compound 0.02 µM): 4.1%
inhibition ([24]; compound 0.001 µM): -7%
inhibition ([24]; compound 0.02 µM): 0.1%
inhibition ([25]; compound 0.001 µM): -3.6%
inhibition ([25]; compound 0.02 µM): -6.4%
inhibition ([26]; compound 0.001 µM): 1.6%
inhibition ([26]; compound 0.02 µM): -4.7%
inhibition ([27]; compound 0.001 µM): -5.4%
inhibition ([27]; compound 0.02 µM): -2.8%
inhibition ([29]; compound 0.001 µM): 13.9%
inhibition ([29]; compound 0.02 µM): 0.8%
inhibition ([30]; compound 0.001 µM): -5.3%
inhibition ([30]; compound 0.02 µM): -4.6%
inhibition ([31]; compound 0.001 µM): 1.4%
inhibition ([31]; compound 0.02 µM): 1.1%
inhibition ([32]; compound 0.001 µM): -4.1%
inhibition ([32]; compound 0.02 µM): -6.1%
inhibition ([33]; compound 0.001 µM): -5.1%
inhibition ([33]; compound 0.02 µM): -5.4%
inhibition ([34]; compound 0.001 µM): 3.7%
inhibition ([34]; compound 0.02 µM): 1.6%
SMILES: CNC(=O)c1ccccc1Sc1ccc2c(/C=C/c3ccccn3)n[nH]c2c1
inhibition ([21]; compound 0.001 µM): -5.6%
inhibition ([21]; compound 0.02 µM): -3.7%

inhibition ([1]; compound 0.2 µM): 82.2%
inhibition ([1]; compound 4.0 µM): 102%
inhibition ([2]; compound 0.2 µM): 36.7%
inhibition ([2]; compound 4.0 µM): 85.9%
inhibition ([3]; compound 0.2 µM): 5.2%
inhibition ([3]; compound 4.0 µM): 66.5%
inhibition ([4]; compound 0.2 µM): 15.7%
inhibition ([4]; compound 4.0 µM): 80.8%
inhibition ([5]; compound 0.2 µM): -0.5%
inhibition ([5]; compound 4.0 µM): 14.2%
inhibition ([7]; compound 0.2 µM): 0.3%
inhibition ([7]; compound 4.0 µM): 36.6%
inhibition ([8]; compound 0.2 µM): 16.6%
inhibition ([8]; compound 4.0 µM): 62.5%
inhibition ([10]; compound 0.2 µM): 1.2%
inhibition ([10]; compound 4.0 µM): 17.6%
inhibition ([12]; compound 0.2 µM): 64.4%
inhibition ([12]; compound 4.0 µM): 98.7%
inhibition ([13]; compound 0.2 µM): -0.9%
inhibition ([13]; compound 4.0 µM): 33.9%
inhibition ([14]; compound 0.2 µM): 51.3%
inhibition ([14]; compound 4.0 µM): 94.4%
inhibition ([15]; compound 0.2 µM): 75.7%
inhibition ([15]; compound 4.0 µM): 101%
inhibition ([16]; compound 0.2 µM): -6.9%
inhibition ([16]; compound 4.0 µM): -20.4%
inhibition ([17]; compound 0.2 µM): 4%
inhibition ([17]; compound 4.0 µM): 5.5%
inhibition ([18]; compound 0.2 µM): 1.2%
inhibition ([18]; compound 4.0 µM): 3.2%
inhibition ([19]; compound 0.2 µM): -2.4%
inhibition ([19]; compound 4.0 µM): -8.5%
inhibition ([20]; compound 0.2 µM): -1.5%
inhibition ([20]; compound 4.0 µM): -6.8%
inhibition ([22]; compound 0.2 µM): 99.7%
inhibition ([22]; compound 4.0 µM): 101%
inhibition ([23]; compound 0.2 µM): 1.8%
inhibition ([23]; compound 4.0 µM): 7.7%
inhibition ([24]; compound 0.2 µM): 6%
inhibition ([24]; compound 4.0 µM): 22.2%
inhibition ([25]; compound 0.2 µM): -0.3%
inhibition ([25]; compound 4.0 µM): 36.5%
inhibition ([26]; compound 0.2 µM): 20%
inhibition ([26]; compound 4.0 µM): 76.7%
inhibition ([27]; compound 0.2 µM): 53.9%
inhibition ([28]; compound 0.2 µM): 61.7%
inhibition ([29]; compound 4.0 µM): 20.6%
inhibition ([30]; compound 0.2 µM): 15%
inhibition ([30]; compound 4.0 µM): 76.1%
inhibition ([31]; compound 0.2 µM): 83.7%
inhibition ([31]; compound 4.0 µM): 101%
inhibition ([32]; compound 0.2 µM): 3.8%
inhibition ([32]; compound 4.0 µM): 18.6%
inhibition ([33]; compound 0.2 µM): -0.6%
inhibition ([33]; compound 4.0 µM): 35.3%
inhibition ([34]; compound 0.2 µM): 21.6%
inhibition ([34]; compound 4.0 µM): 78.3%
SMILES: CCN(CC)CCNC(=O)c1c(C)[nH]c(/C=C2\C(=O)Nc3ccc(F)cc32)c1C
inhibition ([21]; compound 0.2 µM): 0%
inhibition ([21]; compound 4.0 µM): 20.7%
